Key:
[1] = test system: ΦX174 plasmid DNA; experiment: Interaction with ΦX174 plasmid DNA, gel electrophoretic mobility shift; format: binding; settings: [complex]/[bp] 0.018-1.8/1, water, 37° C., 22 h, agarose gel
Description: (§1) ΦX174 plasmids were purchased from Promega and used without further purification. ΦX174 RF plasmid DNA (0.1 mg) was mixed with the corresponding rhenium complexes in H2O at [complex]/[bp] 0.018-1.8/1. The mixtures were incubated in water at 37° C. for 22 h in the dark before analyzing by gel electrophoresis. The pH of the mixtures remained constant at ≈7 in all cases.
(§2) DNA binding was examined by gel electrophoretic mobility shift assays through 9 cm 0.75% agarose slab gels with TAE running buffer. The gels were run at RT, with voltages varying between 50 and 75 V. Running time depended upon the voltage and were usually between 1.5-2 h. The resultant gels were stained with ethidium bromide in the buffer at a concentration of ≈0.3 μg/mL. Bands were visualized by […] UV transillumination equipped with a digital camera.

[2] = test system: ΦX174 plasmid DNA; experiment: Stability of the [M(CO)3]+ ΦX174 plasmid DNA adduct, histidine challenge; format: binding; settings: 100-fold excess of histidine
Description: as §1, §2
Complexes 1 and 7 were incubated with ΦX174 plasmid DNA as described in Example 6. Subsequently, the plasmid was challenged with histidine to cleave the complexes from ΦX174 plasmid DNA.

[3] = test system: MDA-MB-4355 Breast Cancer Cells; experiment: XTT cell proliferation assay, breast cancer cells; set-up: species or system human; settings: 200 μM based on Re, 24 h
Description: (§3) In a typical experiment (see FIG. 10) an average of 2000 cells were grown in microtiter plates (tissue culture grade, 96 wells, flat bottom) in a final volume of 100 μL culture medium per well in a humidified-atmosphere (37° C., >6.5% CO2). After 24 h the rhenium complex was added the wells (final concentrations 200 μM based on Re) and the cells were grown for further 24 h under a humidified atmosphere. After the incubation period 50 μL of the XTT labeling mixture were added to each well. The plates were incubated again for 4 h. After the this final incubation period the spectrophotometrical absorbance (optical density OD) of each well was measured at 450 nm.
(§4) Control experiments were performed as described above without the addition of the rhenium compounds. Blanks were obtained by adding 50 μL of H2O instead of the XTT labeling mixture. Experiments were done in double and the results represent the average.
(§5) The % of cell survival was calculated base on the relative OD of the samples. Maximum control OD was set to 100% cell survival.

[4] = test system: OVMZ-6-WT Ovarian Cancer Cells; experiment: XTT cell proliferation assay, ovarian cancer cells; set-up: species or system human; settings: 200 μM based on Re, 24 h
Description: as §3, §4, §5
(§6) The procedure is as described in Example 10 and FIG. 10. Only the cancer cell line varies.

[5] = test system: B16 F1 mouse melanoma cells; experiment: XTT cell proliferation assay, melanoma cells; settings: 200 μM based on Re (lower for poorly soluble complexes), 24 h
Description: as §3, §4, §5, §6

Compound	scrambling (structural change) of ΦX174 plasmid DNA [1]	release of complex from ΦX174 plasmid DNA by histidine [2]	cytotoxicity (% of cell survival) [3]	cytotoxicity (% of cell survival) [4]	cytotoxicity (% of cell survival) [5]
N.N.[Cl][Pt][Cl] [cisplatin, reference compound]	increased amount of scrambling				
(Et4N)2[ReBr3(CO)3] [Complex 1]		no release could be observed	inhibit cell proliferation	inhibits cell proliferation	strongly inhibit cell proliferation
[Re(9-MeG)2(H2O) (CO)3] (ClO4) [Complex 3]			inhibit cell proliferation		

Source: patent US20070071672A1, “Use of metal tricarbonyl complexes as radiotherapeutic chemotoxic agents” (priority 2003, published 2007)
